Experimental data published in ChEMBL document CHEMBL1201862, “PubChem BioAssay data set” (2004).
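Five compound concentrations were applied to cells in 96-well plates for 48 hours; endpoints were derived by simple linear interpolation of the resulting dose-response curve. GI50: concentration for 50% inhibition of growth.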 Active and inactive are the calls of the source. Rule as the data show it: active = GI50 up to about 1.1 µM and inactive = higher.

Assays:
Experiment in all cases: NCI anticancer screen, dose series, 48 h
SF-539 = test system: SF-539
MDA-N = test system: MDA-N
EKVX = test system: EKVX
SF-268 = test system: SF-268
NCI-H460 = test system: NCI-H460
OVCAR-8 = test system: OVCAR-8
786-0 = test system: 786-0
CAKI-1 = test system: CAKI-1
LOX IMVI = test system: LOX IMVI
U-251 = test system: U-251
HCC 2998 = test system: HCC 2998
MDA-MB-435 = test system: MDA-MB-435
PC-3 = test system: PC-3
SK-MEL-28 = test system: SK-MEL-28
Malme-3M = test system: Malme-3M
SN12C = test system: SN12C
BT-549 = test system: BT-549
NCI-H23 = test system: NCI-H23
SK-MEL-2 = test system: SK-MEL-2

Measured: GI50

O=Cc1ccc(Oc2c3ccccc3nc3ccccc23)cc1
inactive: SF-539 1.76 µM | MDA-N 3.51 µM | EKVX 17.7 µM | SF-268 4.5 µM | NCI-H460 16 µM | OVCAR-8 5.75 µM | 786-0 2.32 µM | CAKI-1 7.05 µM | LOX IMVI 2.9 µM | U-251 5.27 µM | HCC 2998 14.8 µM | MDA-MB-435 2.45 µM | PC-3 6.34 µM | SK-MEL-28 12.6 µM | Malme-3M 11.8 µM | SN12C 2.85 µM | BT-549 14.8 µM

C=CCOCn1ccc(N)nc1=O
inactive: SF-539 > 100 µM | MDA-N > 100 µM | EKVX > 100 µM | SF-268 > 100 µM | NCI-H23 > 100 µM | OVCAR-8 > 100 µM | 786-0 > 100 µM | CAKI-1 > 100 µM | LOX IMVI > 100 µM | HCC 2998 > 100 µM | MDA-MB-435 > 100 µM | PC-3 > 100 µM | SK-MEL-28 > 100 µM | Malme-3M > 100 µM | SN12C > 100 µM | BT-549 > 100 µM

OC[C@@H](O)[C@H](O)[C@H](O)[C@@H](O)C1SCCCS1
inactive: SF-539 > 100 µM | MDA-N > 100 µM | EKVX > 100 µM | SF-268 > 100 µM | NCI-H23 > 100 µM | NCI-H460 > 100 µM | OVCAR-8 > 100 µM | 786-0 > 100 µM | CAKI-1 > 100 µM | SK-MEL-2 > 100 µM | U-251 > 100 µM | HCC 2998 > 100 µM | MDA-MB-435 > 100 µM | PC-3 > 100 µM | SK-MEL-28 > 100 µM | SN12C > 100 µM | BT-549 > 100 µM

COc1ccc(C2=CC(C(C)=C(C(N)=O)C(N)=O)C=C(c3ccc(Br)cc3)C2)c(OC)c1 (centres undefined)
inactive: MDA-N > 100 µM | EKVX 44.2 µM | SF-268 > 100 µM | NCI-H23 > 100 µM | NCI-H460 > 100 µM | OVCAR-8 > 100 µM | 786-0 > 100 µM | CAKI-1 > 100 µM | LOX IMVI > 100 µM | SK-MEL-2 > 100 µM | U-251 > 100 µM | HCC 2998 > 100 µM | MDA-MB-435 > 100 µM | PC-3 50.5 µM | SK-MEL-28 > 100 µM | SN12C > 100 µM | BT-549 > 100 µM

O=c1c2cc(I)ccc2nc(Sc2ncccc2[N+](=O)[O-])n1Cc1ccccc1
inactive: SF-539 32.2 µM | MDA-N 20.4 µM | EKVX 17.7 µM | SF-268 22.1 µM | NCI-H23 24 µM | NCI-H460 29.4 µM | OVCAR-8 31 µM | 786-0 23.2 µM | CAKI-1 25.8 µM | LOX IMVI 34.3 µM | SK-MEL-2 7.38 µM | U-251 35.2 µM | HCC 2998 26.7 µM | MDA-MB-435 23.7 µM | PC-3 26.5 µM | SK-MEL-28 > 100 µM | SN12C 20.6 µM | BT-549 11.6 µM

Nc1nc2c(C(=O)O)c3ccc([N+](=O)[O-])cc3c(=O)n2c2ccccc12
inactive: MDA-N 22.8 µM | EKVX 27.9 µM | SF-268 33.8 µM | NCI-H23 22.6 µM | NCI-H460 30.1 µM | OVCAR-8 18.7 µM | 786-0 20.6 µM | CAKI-1 34.4 µM | LOX IMVI 11.9 µM | SK-MEL-2 24.9 µM | U-251 27.2 µM | HCC 2998 32.3 µM | MDA-MB-435 27.2 µM | PC-3 24.5 µM | SK-MEL-28 52.8 µM | Malme-3M 40 µM | SN12C 18 µM | BT-549 27.9 µM

N=c1c2c(-c3ccccc3)c[nH]c2ncn1N
inactive: SF-539 > 100 µM | MDA-N > 100 µM | EKVX > 100 µM | NCI-H23 > 100 µM | OVCAR-8 > 100 µM | 786-0 > 100 µM | CAKI-1 > 100 µM | LOX IMVI > 100 µM | SK-MEL-2 > 100 µM | U-251 > 100 µM | HCC 2998 > 100 µM | MDA-MB-435 > 100 µM | PC-3 > 100 µM | SK-MEL-28 > 100 µM | SN12C > 100 µM | BT-549 > 100 µM

COc1cc(/C=C2/Oc3c(OC)cccc3C2=O)ccc1O
inactive: MDA-N > 100 µM | EKVX 46.9 µM | SF-268 > 100 µM | NCI-H23 > 100 µM | NCI-H460 32.4 µM | OVCAR-8 > 100 µM | 786-0 76.4 µM | CAKI-1 36.5 µM | LOX IMVI 84.5 µM | SK-MEL-2 > 100 µM | U-251 > 100 µM | HCC 2998 48.4 µM | MDA-MB-435 52.5 µM | PC-3 43.9 µM | SK-MEL-28 > 100 µM | SN12C > 100 µM | BT-549 > 100 µM

C[C@@H]1C[C@H]2OC(=O)[C@@]3(C)CCC[C@@](C)([C@@H]23)[C@@]1(O)CCc1ccoc1
inactive: SF-539 > 100 µM | MDA-N > 100 µM | EKVX > 100 µM | SF-268 > 100 µM | NCI-H23 > 77.8 µM | NCI-H460 56.9 µM | OVCAR-8 > 100 µM | 786-0 > 100 µM | CAKI-1 > 100 µM | LOX IMVI > 100 µM | SK-MEL-2 > 100 µM | U-251 > 100 µM | HCC 2998 > 100 µM | MDA-MB-435 > 100 µM | PC-3 > 100 µM | SK-MEL-28 > 100 µM | SN12C > 100 µM | BT-549 > 49.8 µM

O=c1c(C(c2ccc(O)cc2)c2c(O)oc3ccccc3c2=O)c(O)oc2ccccc12
inactive: MDA-N 45.2 µM | EKVX > 100 µM | SF-268 16.2 µM | NCI-H23 > 100 µM | NCI-H460 > 100 µM | OVCAR-8 48.8 µM | 786-0 58.2 µM | CAKI-1 85.9 µM | LOX IMVI 45.2 µM | SK-MEL-2 > 100 µM | U-251 34.9 µM | HCC 2998 46.3 µM | MDA-MB-435 98.9 µM | PC-3 > 100 µM | SK-MEL-28 55.5 µM | Malme-3M 86.9 µM | SN12C 56.8 µM | BT-549 59.8 µM

Oc1ccc(/C=C/c2ccc3cccc(O)c3n2)cc1O
inactive: SF-539 3.13 µM | MDA-N 5.41 µM | EKVX 6.11 µM | SF-268 6.5 µM | NCI-H460 3.11 µM | OVCAR-8 5.86 µM | 786-0 3.24 µM | CAKI-1 4.98 µM | LOX IMVI 4.48 µM | SK-MEL-2 11.9 µM | U-251 4.2 µM | HCC 2998 10.8 µM | MDA-MB-435 5.9 µM | PC-3 15.6 µM | SK-MEL-28 13 µM | SN12C 2.94 µM | BT-549 1.61 µM
